Here are results for eight compounds from ChEMBL document CHEMBL1132916, “Total synthesis of pyrrolizidines 223H', 239K', 265H', and 267H' found in Madagascan frogs (Mantella) and their affinities for nicotinic acetylcholine receptor” (Bioorg Med Chem Lett, 2000).

For the experiment, the target named is Acetylcholine receptor (Torpedo californica, UniProt P02710+P02712+P02714+P02718). As to the kind of experiment: Compound was evaluated for inhibition of [3H]TCP binding to Nicotinic acetylcholine receptor of Torpedo californica. The class given is protein-complex assay, Tetronarce californica.
Acetylcholine receptor, sequence (P02710 whole entry): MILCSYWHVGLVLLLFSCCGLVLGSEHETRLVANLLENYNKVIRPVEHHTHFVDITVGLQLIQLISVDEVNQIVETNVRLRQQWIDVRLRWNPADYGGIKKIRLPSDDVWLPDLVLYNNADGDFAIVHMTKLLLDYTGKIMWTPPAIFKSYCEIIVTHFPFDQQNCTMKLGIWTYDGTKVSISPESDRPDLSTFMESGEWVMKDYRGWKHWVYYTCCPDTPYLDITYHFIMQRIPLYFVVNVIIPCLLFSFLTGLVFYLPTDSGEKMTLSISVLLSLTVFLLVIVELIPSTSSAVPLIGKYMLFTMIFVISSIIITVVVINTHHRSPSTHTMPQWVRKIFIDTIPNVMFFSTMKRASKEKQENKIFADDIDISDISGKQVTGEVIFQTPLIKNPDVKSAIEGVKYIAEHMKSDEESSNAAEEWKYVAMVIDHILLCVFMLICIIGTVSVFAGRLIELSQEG
Acetylcholine receptor, sequence (P02712 whole entry): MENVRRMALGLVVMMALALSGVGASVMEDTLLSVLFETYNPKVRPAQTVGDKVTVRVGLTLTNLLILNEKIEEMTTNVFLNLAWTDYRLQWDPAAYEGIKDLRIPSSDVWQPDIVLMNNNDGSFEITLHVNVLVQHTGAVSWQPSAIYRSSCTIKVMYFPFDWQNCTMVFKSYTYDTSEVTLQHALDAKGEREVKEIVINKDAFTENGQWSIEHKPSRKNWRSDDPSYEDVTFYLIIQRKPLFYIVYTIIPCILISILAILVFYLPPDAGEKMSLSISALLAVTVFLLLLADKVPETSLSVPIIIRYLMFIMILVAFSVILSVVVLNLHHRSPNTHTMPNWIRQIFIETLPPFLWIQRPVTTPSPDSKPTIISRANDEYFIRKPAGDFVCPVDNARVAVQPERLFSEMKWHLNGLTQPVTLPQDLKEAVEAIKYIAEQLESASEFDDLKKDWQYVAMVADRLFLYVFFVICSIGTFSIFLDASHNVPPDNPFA
Acetylcholine receptor, sequence (P02718 whole entry): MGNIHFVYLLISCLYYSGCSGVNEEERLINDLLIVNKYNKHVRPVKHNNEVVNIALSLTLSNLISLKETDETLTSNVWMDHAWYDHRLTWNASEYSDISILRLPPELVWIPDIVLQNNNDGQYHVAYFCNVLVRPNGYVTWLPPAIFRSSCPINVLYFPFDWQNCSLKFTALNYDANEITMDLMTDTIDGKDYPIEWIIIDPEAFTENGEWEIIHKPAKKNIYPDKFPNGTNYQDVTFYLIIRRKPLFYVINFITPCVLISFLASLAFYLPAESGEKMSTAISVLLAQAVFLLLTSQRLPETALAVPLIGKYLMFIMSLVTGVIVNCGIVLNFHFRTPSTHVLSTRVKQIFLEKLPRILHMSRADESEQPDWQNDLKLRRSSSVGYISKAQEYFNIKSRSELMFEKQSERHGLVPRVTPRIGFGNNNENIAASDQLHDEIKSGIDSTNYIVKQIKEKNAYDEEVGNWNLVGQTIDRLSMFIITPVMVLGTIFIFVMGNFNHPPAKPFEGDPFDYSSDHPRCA
Acetylcholine receptor, sequence (P02714 whole entry): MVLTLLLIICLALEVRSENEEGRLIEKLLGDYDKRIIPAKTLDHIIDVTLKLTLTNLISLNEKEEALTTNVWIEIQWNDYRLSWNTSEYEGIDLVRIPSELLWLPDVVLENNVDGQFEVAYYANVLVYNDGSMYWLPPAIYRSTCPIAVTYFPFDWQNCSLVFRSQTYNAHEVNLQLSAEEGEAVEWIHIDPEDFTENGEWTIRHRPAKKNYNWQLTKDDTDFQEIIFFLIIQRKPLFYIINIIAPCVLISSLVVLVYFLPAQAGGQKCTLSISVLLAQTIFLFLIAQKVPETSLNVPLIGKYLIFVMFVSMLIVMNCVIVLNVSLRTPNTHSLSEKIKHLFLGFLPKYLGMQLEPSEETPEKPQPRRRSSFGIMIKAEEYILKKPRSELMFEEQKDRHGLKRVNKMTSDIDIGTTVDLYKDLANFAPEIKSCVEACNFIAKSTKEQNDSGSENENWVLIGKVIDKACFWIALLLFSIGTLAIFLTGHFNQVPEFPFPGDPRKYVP
As for `CCCCCCC[C@@H]1CC[C@H]2CC[C@H](C)N12`, the affinity corresponds to a Ki of 0.05 mM.
Turning to `C[C@H](O)CCCCC[C@@H]1CC[C@H]2CC[C@H](C)N12`, the Ki turned out to be 3.3 mM. Compared with the last compound, the Ki is about 66-fold higher.
With `CCCC[C@@H]1CCCC2CC[C@@H](CCCC)N21` (stereo partly drawn), the Ki was 0.42 mM.
The figure for `C[C@@H](O)CCCCC[C@@H]1CC[C@H]2CC[C@H](C)N12` is 8.3 mM.
The figure for `CCC[C@H]1CC[C@@H]2CC[C@@H](CCCCC[C@@H](C)O)N21` is 3.1 mM; for `CCCC[C@H]1CCCC2CC[C@@H](CCCC)N21` (stereo partly drawn) it is 0.37 mM.
Consider `CCC[C@H]1CC[C@@H]2CC[C@@H](CCCCC[C@H](C)O)N21`, for which the Ki was found to be 3.1 mM.
The figure for `CCC[C@H]1CC[C@@H]2CC[C@@H](CCCCCC(C)=O)N21` is 0.83 mM.
